The source of these data is patent US12679878B2, “CRF2 receptor agonists and their use in therapy” (SANOFI, priority 2020, dated 2026).

The structures appear in SMILES notation. Starred links: 1 amine or outer side, 2 acyl side, 3 side chain; linkers in the order of their positions; H or OH if unused. Non-standard residues stand in square brackets, D forms with d. Residues, ends and D or L forms follow the SMILES beside them. Groups on a side chain read outwards from the residue. *: point of attachment. γGlu = O=C(O)[C@H](CCC(=O)[*:2])N[*:1]; Palmitoyl = CCCCCCCCCCCCCCCC(=O)*; Aib = CC(C)(N)C(=O)O

In one test the target is T1, human CRF2α receptor (Homo sapiens, UniProt Q13324).
T1 construct: expressed in transfected cells; host or cells: TeloHEAC
T1 sequence (Q13324 1-411): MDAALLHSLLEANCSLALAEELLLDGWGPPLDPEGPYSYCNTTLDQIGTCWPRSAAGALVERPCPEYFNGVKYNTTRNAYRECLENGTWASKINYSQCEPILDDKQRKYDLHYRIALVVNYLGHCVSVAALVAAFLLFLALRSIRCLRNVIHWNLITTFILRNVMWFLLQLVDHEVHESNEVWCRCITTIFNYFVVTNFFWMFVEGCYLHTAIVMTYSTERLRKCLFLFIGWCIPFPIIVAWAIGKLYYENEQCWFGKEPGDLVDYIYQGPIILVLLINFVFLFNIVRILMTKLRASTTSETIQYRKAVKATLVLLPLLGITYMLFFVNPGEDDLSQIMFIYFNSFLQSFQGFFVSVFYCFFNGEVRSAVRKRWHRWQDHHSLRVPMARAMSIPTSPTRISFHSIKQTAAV
As to the kind of experiment: cAMP agonism at human CRF2α receptor in TeloHEAC cells, FA modified peptides (Example 19.9). Particulars: 0% HSA, relative to urocortin 2. Format: cell-based. Put shortly:
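Efficacy and EC50 are referenced to 100 nM urocortin 2 as 100%, with cAMP measured as the 665/620 nm HTRF ratio after 1 h at room temperature. Compounds (0.5 mM DMSO stock, 16 twofold dilutions) acted 30 min at 37 °C on CRF2α-expressing TeloHEAC cells, buffer containing IBMX and 0% or 0.2% HSA.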

Another test concerns the target T2, CRF1R receptor (Homo sapiens, UniProt P34998).
T2 construct: host or cells: CHO-K1 clone 2
T2 sequence (P34998 24-415): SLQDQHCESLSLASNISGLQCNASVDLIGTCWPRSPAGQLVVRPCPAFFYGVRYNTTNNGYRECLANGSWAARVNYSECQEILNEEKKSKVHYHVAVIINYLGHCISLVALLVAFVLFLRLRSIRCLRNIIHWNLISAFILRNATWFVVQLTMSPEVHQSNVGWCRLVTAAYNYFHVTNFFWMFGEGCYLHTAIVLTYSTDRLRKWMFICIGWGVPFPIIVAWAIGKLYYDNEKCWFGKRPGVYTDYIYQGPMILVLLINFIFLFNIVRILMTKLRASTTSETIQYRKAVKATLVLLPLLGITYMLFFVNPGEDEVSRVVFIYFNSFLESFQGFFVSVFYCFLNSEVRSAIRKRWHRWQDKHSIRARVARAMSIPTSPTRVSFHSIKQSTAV
As to the kind of experiment: cAMP activity at anti-target CRF1R, CHO-K1 cell line clone 2 (Example 19.10). Format: cell-based. Particulars: ratio of CRF1 EC50 to CRF2 EC50. Put shortly:
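The cAMP read-out used the same protocol as the previous assay, except that Sauvagine at 100 nM set the 100% activation control. Cells were CHO-K1 clone 2 overexpressing CRF1R, cultured in F12 medium with 10% FBS and G418 and stored frozen until use.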

As to `CCCCCCCCCCCCCCCC(=O)N[C@@H](CCC(=O)NCCCC[C@H](NC(=O)[C@H](CC(C)C)NC(=O)[C@H](CCCCN)NC(=O)[C@@H](NC(=O)[C@@H]1CCCN1C(=O)[C@H](NC(=O)[C@H](CC(=O)O)NC(=O)[C@H](CC(C)C)NC(=O)[C@H](CO)NC(=O)[C@H](CC(C)C)NC(=O)[C@@H](NC(=O)[C@@H](N)[C@@H](C)CC)C(C)C)C(C)C)[C@@H](C)CC)C(=O)N[C@@H](CCC(N)=O)C(=O)N[C@H](C(=O)N[C@@H](CC(C)C)C(=O)N[C@@H](CC(C)C)C(=O)N[C@@H](CCCCN)C(=O)N[C@@H](CCC(N)=O)C(=O)N[C@@H](CCC(=O)O)C(=O)N[C@@H](CCCNC(=N)N)C(=O)N[C@@H](CCC(N)=O)C(=O)N[C@@H](CCCCN)C(=O)NC(C)(C)C(=O)N[C@@H](CCC(N)=O)C(=O)N[C@@H](CCCNC(=N)N)C(=O)N[C@@H](CCC(=O)O)C(=O)N[C@@H](CCC(N)=O)C(=O)N[C@@H](C)C(=O)N[C@@H](CCC(=O)O)C(=O)N[C@@H](CCCCN)C(=O)N[C@@H](CC(N)=O)C(=O)N[C@@H](CCCCN)C(=O)N[C@@H](CCC(N)=O)C(=O)N[C@H](C(=O)N[C@@H](CC(C)C)C(=O)N[C@@H](C)C(=O)N[C@@H](CCC(N)=O)C(=O)N[C@H](C(N)=O)C(C)C)[C@@H](C)CC)[C@@H](C)CC)C(=O)O` [compound 204] (H-IVLSLD[dV]PIKLK([γGlu-Palmitoyl])QILLKQERQK[Aib]QREQAEKNKQILAQV-NH2), the EC50 on human CRF2α receptor turned out to be 0.14 nM. In addition, the CRF1/CRF2 ratio on CRF1R receptor was found to be 3.
For `CCCCCCCCCCCCCCCC(=O)N[C@@H](CCC(=O)NCCCC[C@H](NC(=O)[C@H](CC(C)C)NC(=O)CNC(=O)[C@@H](NC(=O)[C@@H]1CCCN1C(=O)[C@H](NC(=O)[C@H](CC(=O)O)NC(=O)[C@H](CC(C)C)NC(=O)[C@H](CO)NC(=O)[C@H](CC(C)C)NC(=O)[C@@H](NC(=O)[C@@H](N)[C@@H](C)CC)C(C)C)C(C)C)[C@@H](C)CC)C(=O)N[C@@H](CCC(N)=O)C(=O)N[C@H](C(=O)N[C@@H](CC(C)C)C(=O)N[C@@H](CC(C)C)C(=O)N[C@@H](CCCCN)C(=O)N[C@@H](CCC(N)=O)C(=O)N[C@@H](CCC(=O)O)C(=O)N[C@@H](CCCNC(=N)N)C(=O)N[C@@H](CCC(N)=O)C(=O)N[C@@H](CCCCN)C(=O)N[C@@H](CCCCN)C(=O)NC(C)(C)C(=O)N[C@@H](CCCNC(=N)N)C(=O)N[C@@H](CCC(=O)O)C(=O)N[C@@H](CCC(N)=O)C(=O)N[C@@H](C)C(=O)N[C@@H](CCC(=O)O)C(=O)N[C@H](C(=O)N[C@@H](CC(N)=O)C(=O)N[C@@H](CCCCN)C(=O)N[C@@H](CCCNC(=N)N)C(=O)N[C@H](C(=O)N[C@@H](CC(C)C)C(=O)N[C@@H](CCC(=O)O)C(=O)N[C@@H](CCCNC(=N)N)C(=O)N[C@H](C(N)=O)C(C)C)[C@@H](C)CC)[C@@H](C)O)[C@@H](C)CC)C(=O)O` [compound 207] (H-IVLSLD[dV]PIGLK([γGlu-Palmitoyl])QILLKQERQKK[Aib]REQAETNKRILERV-NH2; N-terminus assumed) the same measures were 0.68 nM and 6.
